Measurements taken from PubChem BioAssay AID256 (DTP/NCI, 2004).
Values joined by “and” are separate entries in the source; they are usually repeats but may differ in a detail not shown here. Identical values can stand only once. Inconclusive results and toxic doses are left out. Rule for the calls: active = survival T/C of 150% or more; inactive = T/C below 125% in these data.

Tested on: CD2F1 mice, L1210 leukemia ip, survival T/C
Assay: NCI In Vivo Anticancer Drug Screen. Data for tumor model L1210 Leukemia (intraperitoneal) in CD2F1 (CDF1) mice
Settings: endpoint: mean survival time, higher = longer survival
Summary of the method: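 Antitumor effect is scored in animals hosting a serially transplanted tumor. Values compare compound-dosed animals against vehicle-only controls as a simple quotient.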

[1] = dose: 12.5 mg/kg/injection, schedule: Q01DX009 (ip), vehicle: Klucel (hydroxypropylcellulose) (HPC)
[2] = dose: 25.0 mg/kg/injection, schedule: Q01DX009 (ip), vehicle: Klucel (hydroxypropylcellulose) (HPC)
[3] = dose: 50.0 mg/kg/injection, schedule: Q01DX009 (ip), vehicle: saline with Tween-80
[4] = dose: 100.0 mg/kg/injection, schedule: Q04DX003 (ip), vehicle: saline
[5] = dose: 100.0 mg/kg/injection, schedule: Q04DX003 (ip), vehicle: saline with Tween-80

Measured: T/C

O/N=C/c1cccc[n+]1Cc1ccccc1
inactive: dose: 1.56 mg/kg/injection, schedule: Q01DX009 (ip), vehicle: Klucel (hydroxypropylcellulose) (HPC) 107 % of control | dose: 3.13 mg/kg/injection, schedule: Q01DX009 (ip), vehicle: Klucel (hydroxypropylcellulose) (HPC) 106 % of control | dose: 6.25 mg/kg/injection, schedule: Q01DX009 (ip), vehicle: Klucel (hydroxypropylcellulose) (HPC) 102 % of control | [1] 106 % of control | [2] 95 % of control | dose: 25.0 mg/kg/injection, schedule: Q01DX009 (ip), vehicle: water 100 % of control

S=C(N/N=C/c1ccccn1)N/N=C/c1ccccn1
inactive: dose: 20.0 mg/kg/injection, schedule: Q01DX009 (ip), vehicle: saline with Tween-80 102 % of control | dose: 33.0 mg/kg/injection, schedule: Q01DX009 (ip), vehicle: saline with Tween-80 117 % of control | [3] 113 % of control | dose: 75.0 mg/kg/injection, schedule: Q01DX009 (ip), vehicle: saline with Tween-80 119 % of control and 101 % of control

CCOC(=O)/C=C\C(=O)O.[Mn]
inactive: dose: 25.0 mg/kg/injection, schedule: Q04DX003 (ip), vehicle: saline 102 % of control | dose: 50.0 mg/kg/injection, schedule: Q04DX003 (ip), vehicle: saline 104 % of control | dose: 100.0 mg/kg/injection, schedule: Q04DX002 (ip), vehicle: saline 98 % of control | [4] 112 % of control | dose: 200.0 mg/kg/injection, schedule: Q01DX001 (ip), vehicle: saline 98 % of control | dose: 200.0 mg/kg/injection, schedule: Q04DX002 (ip), vehicle: saline 97 % of control | dose: 300.0 mg/kg/injection, schedule: Q04DX002 (ip), vehicle: saline 116 % of control

CCCC(CCC)=NN=C(CCC)CCC
inactive: dose: 25.0 mg/kg/injection, schedule: Q01DX005 (ip), vehicle: saline 97 % of control | dose: 25.0 mg/kg/injection, schedule: Q01DX009 (ip), vehicle: saline with Tween-80 95 % of control | dose: 50.0 mg/kg/injection, schedule: Q01DX005 (ip), vehicle: saline 97 % of control | [3] 106 % of control | dose: 50.0 mg/kg/injection, schedule: Q04DX002 (ip), vehicle: saline + alcohol 95 % of control | dose: 100.0 mg/kg/injection, schedule: Q01DX005 (ip), vehicle: saline 105 % of control | dose: 100.0 mg/kg/injection, schedule: Q01DX009 (ip), vehicle: saline with Tween-80 91 % of control | dose: 100.0 mg/kg/injection, schedule: Q04DX002 (ip), vehicle: saline + alcohol 92 % of control | dose: 200.0 mg/kg/injection, schedule: Q01DX005 (ip), vehicle: saline 97 % of control | dose: 200.0 mg/kg/injection, schedule: Q01DX009 (ip), vehicle: saline with Tween-80 93 % of control | dose: 200.0 mg/kg/injection, schedule: Q04DX002 (ip), vehicle: saline + alcohol 88 % of control

CCOc1ccc(/C=C(/C#N)C(N)=O)cc1
inactive: dose: 50.0 mg/kg/injection, schedule: Q04DX003 (ip), vehicle: saline with Tween-80 97 % of control | [5] 94 % of control | dose: 200.0 mg/kg/injection, schedule: Q04DX003 (ip), vehicle: saline with Tween-80 92 % of control

CC12CCC(C1)C(C)(C)C2(O)c1ccccc1 (configuration not stated)
inactive: [5] 92 % of control

CCCCOCCN1CCN(CCCN2c3ccccc3Sc3ccc(C(F)(F)F)cc32)CC1
inactive: dose: 2.3 mg/kg/injection, schedule: Q01DX001 (ip), vehicle: saline 106 % of control | dose: 3.5 mg/kg/injection, schedule: Q01DX001 (ip), vehicle: saline 100 % of control | dose: 5.2 mg/kg/injection, schedule: Q01DX001 (ip), vehicle: saline 105 % of control | dose: 7.2 mg/kg/injection, schedule: Q01DX001 (ip), vehicle: saline 112 % of control | dose: 11.0 mg/kg/injection, schedule: Q01DX001 (ip), vehicle: saline 107 % of control | dose: 16.0 mg/kg/injection, schedule: Q01DX001 (ip), vehicle: saline 104 % of control

N#CCCC(C#N)(c1cccnc1)N1CCOCC1 (configuration not stated)
inactive: [1] 93 % of control | [2] 97 % of control | dose: 25.0 mg/kg/injection, schedule: Q04DX002 (ip), vehicle: saline with Tween-80 109 % of control

CNC(=O)c1nc2c(nc1NC)n(C)c(=O)n2C
inactive: dose: 12.5 mg/kg/injection, schedule: Q01DX005 (ip), vehicle: other 93 % of control | dose: 25.0 mg/kg/injection, schedule: Q01DX005 (ip), vehicle: other 90 % of control | dose: 50.0 mg/kg/injection, schedule: Q01DX005 (ip), vehicle: other 95 % of control

O=C(Cl)CCc1ccnc2ccccc12
inactive: [4] 95 % of control | dose: 200.0 mg/kg/injection, schedule: Q04DX003 (ip), vehicle: saline 101 % of control | dose: 400.0 mg/kg/injection, schedule: Q04DX003 (ip), vehicle: saline 113 % of control
